According to US6136831A, “Pyrazole derivatives and COX inhibitors containing them” (Grelan Pharmaceutical Co., Ltd., priority 1997, dated 2000):

Columns and labels:
[1] = tested on: rat adjuvant-induced arthritis; experiment: Inhibitory Action on Adjuvant Arthritis (1) (Assay Example 2); format: in vivo, male Fisher rats; details: oral 5 mg/kg
Protocol: Dry Mycobacterium butyricum killed organisms (Difco) were suspended in liquid paraffin to make the concentration 1% and the resulting suspension used as an adjuvant. The adjuvant (50 μl) was subplantarly injected to the right hind paw of male Fisher rats (5 to 6 animals per group) to raise arthritis. Each test compound was suspended in a 0.5% aqueous sodium carboxymethylcellulose (CMC-Na) solution and orally administered to the rats at a dose of 5 mg/kg on days 0, 3, 7, 10, 14, 17 and 20 (7 times in total) after the arthritis induction. On the 21st disease day the rats were measured for their body weight and the edema of their right and left hind paws. Simultaneously, systemic inflammatory states were scored. In addition, each of their spleen and thymus was taken out by excision to measure their wet weight and their relative weight per 100 g body weight was calculated.

[2] = target: T1, COX-1 (Ovis aries, UniProt P05979); experiment: Inhibitory Activity on COX-1 (Assay Example 1); format: biochemical; details: Table 1; read-out: COX Inhibiting Activity IC50, COX-1
T1 construct: purchased Cayman Chemical Co
T1 sequence (P05979 25-600): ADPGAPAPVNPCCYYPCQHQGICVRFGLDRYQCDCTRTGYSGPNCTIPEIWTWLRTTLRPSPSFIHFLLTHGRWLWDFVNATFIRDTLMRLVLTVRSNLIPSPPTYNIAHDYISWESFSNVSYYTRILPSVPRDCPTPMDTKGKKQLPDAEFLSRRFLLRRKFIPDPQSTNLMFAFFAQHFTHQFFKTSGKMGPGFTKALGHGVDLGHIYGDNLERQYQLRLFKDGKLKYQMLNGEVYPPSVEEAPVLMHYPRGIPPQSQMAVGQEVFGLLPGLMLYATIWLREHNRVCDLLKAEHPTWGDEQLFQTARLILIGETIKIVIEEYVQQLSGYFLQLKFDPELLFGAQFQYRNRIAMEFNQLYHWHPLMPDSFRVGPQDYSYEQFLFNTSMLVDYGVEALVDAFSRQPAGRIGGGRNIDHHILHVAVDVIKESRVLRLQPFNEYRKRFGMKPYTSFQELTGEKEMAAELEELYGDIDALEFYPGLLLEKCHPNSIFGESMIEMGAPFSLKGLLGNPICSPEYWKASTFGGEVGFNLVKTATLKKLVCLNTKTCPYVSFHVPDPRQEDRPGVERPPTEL

[3] = target: T2, COX-2 (Ovis aries, UniProt P79208); experiment: Inhibitory Activity on COX-2 (Assay Example 1); format: biochemical; details: Table 1; for IC50: read-out: COX Inhibiting Activity IC50, COX-2
T2 construct: purchased Cayman Chemical Co
T2 sequence (P79208 17-603): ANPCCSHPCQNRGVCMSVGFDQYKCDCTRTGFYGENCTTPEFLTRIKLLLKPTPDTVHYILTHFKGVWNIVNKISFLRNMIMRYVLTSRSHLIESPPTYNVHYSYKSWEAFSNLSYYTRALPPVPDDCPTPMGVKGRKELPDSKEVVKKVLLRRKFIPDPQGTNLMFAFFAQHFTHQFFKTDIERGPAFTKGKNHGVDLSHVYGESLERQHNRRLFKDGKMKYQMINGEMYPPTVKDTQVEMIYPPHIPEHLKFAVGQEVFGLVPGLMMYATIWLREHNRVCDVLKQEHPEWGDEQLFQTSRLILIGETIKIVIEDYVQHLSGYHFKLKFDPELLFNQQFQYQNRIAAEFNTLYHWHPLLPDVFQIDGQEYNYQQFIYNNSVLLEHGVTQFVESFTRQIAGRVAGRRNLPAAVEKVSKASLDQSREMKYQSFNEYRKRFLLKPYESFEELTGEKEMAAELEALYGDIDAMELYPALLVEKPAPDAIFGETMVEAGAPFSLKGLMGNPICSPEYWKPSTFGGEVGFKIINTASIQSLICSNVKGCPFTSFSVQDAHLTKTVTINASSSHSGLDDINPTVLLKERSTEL

[4] = target: T1, COX-1; experiment: Inhibitory Activity on COX-1 (Assay Example 5); format: biochemical; details: Table 4; read-out: COX Inhibiting Activity IC50, COX-1
[5] = target: T2, COX-2; experiment: Inhibitory Activity on COX-2 (Assay Example 5); format: biochemical; details: Table 4; for IC50: read-out: COX Inhibiting Activity IC50, COX-2
[6] = tested on: adjuvant arthritis in rats; experiment: Inhibitory Action on Adjuvant Arthritis (2) (Assay Example 6); format: in vivo, male F344/Du (Fisher) rats; details: oral 1 mg/5 ml/kg daily, 17 days; for % Inhibition against Reduction of Gain in Body Weight / Edema Inhibition (%) Left Hind Paw (Non-inflamed Paw) / Edema Inhibition (%) Right Hind Paw (Inflamed Paw): measured next day; for % Inhibition against Change in Relative Weight, Spleen / % Inhibition against Change in Relative Weight, Thymus: relative weight per 100 g body weight; for Inflammation Score Inhibition (%): scored next day
Protocol: A 1% dry Mycobacterium tuberculosis H37 RA killed organism suspension in liquid paraffin was employed as an adjuvant. The adjuvant suspension (50 μl) was subplantarly administered to the right hind paw of male F344/Du (Fisher) rats (5 to 6 animals per group) to raise arthritis. […] The next day after the final administration, the rats were measured for their body weight and the edema of their right and left hind paws. Simultaneously, systemic inflammatory states were scored. In addition, each of their spleen and thymus was taken out by excision to measure their wet weight and their relative weight per 100 g body weight was determined.

[7] = 7 times, relative weight per 100 g body weight, day 21
[8] = days 0, 3, 7, 10, 14, 17, 20, measured day 21

Compound | IC50 [4] | COX-1/COX-2 (ratio of IC50 values) [5] | IC50 [5] | other results
CS(=O)(=O)c1ccc(-n2nc(C(F)(F)F)cc2-c2nc3cc(F)ccc3s2)cc1 [Example 4, 5-Fluoro-2-[1-(4-methylsulfonylphenyl)-3-trifluoromethyl-1H-pyrazol-5-yl]benzothiazole] |  |  |  | % Inhibition against Change in Relative Weight, Spleen [1, 7]: 2.9%; % Inhibition against Change in Relative Weight, Thymus [1, 7]: 148.9%; % Inhibition against Reduction of Gain in Body Weight [1, 8]: 78.7%; Edema Inhibition (%) Left Hind Paw (Non-inflamed Paw) [1, 8]: 91%; Edema Inhibition (%) Right Hind Paw (Inflamed Paw) [1, 8]: 83%; Inflammation Score Inhibition (%) ([1]; days 0, 3, 7, 10, 14, 17, 20, scored day 21): 100%
CS(=O)(=O)c1ccc(-n2nc(C(F)(F)F)cc2-c2nc3ccccc3s2)cc1 [Example 8, 2-[1-(4-Methylsulfonylphenyl)-3-trifluoromethyl-1H-pyrazol-5-yl]benzothiazole] |  |  |  | IC50 [2]: > 100000 nM; COX-1/COX-2 (ratio of IC50 values) [3]: > 294; IC50 [3]: 340 nM
CS(=O)(=O)c1ccc(-n2nc(C(F)(F)F)cc2-c2nc3ccc(Cl)cc3s2)cc1 [Example 10, 6-Chloro-2-[1-(4-methylsulfonylphenyl)-3-trifluoromethyl-1H-pyrazol-5-yl]benzothiazole] |  |  |  | IC50 [2]: > 100000 nM; COX-1/COX-2 (ratio of IC50 values) [3]: > 185; IC50 [3]: 540 nM
COc1ccc2nc(-c3cc(C(F)(F)F)nn3-c3ccc(S(N)(=O)=O)cc3)sc2c1 [Example 11, 4-[5-(6-Methoxybenzothiazol-2-yl)-3-trifluoromethyl-1H-pyrazol-1-yl]benzenesulfonamide] |  |  |  | IC50 [2]: > 100000 nM; COX-1/COX-2 (ratio of IC50 values) [3]: > 208; IC50 [3]: 480 nM
NS(=O)(=O)c1ccc(-n2nc(C(F)(F)F)cc2-c2nc3ccccc3s2)cc1 [Example 14, 4-[5-(Benzothiazol-2-yl)-3-trifluoromethyl-1H-pyrazol-1-yl]-benzenesulfonamide] | > 100000 nM | > 1786 | 56 nM | 
Cc1ccc2nc(-c3cc(C(F)(F)F)nn3-c3ccc(S(N)(=O)=O)cc3)sc2c1 [Example 16, 4-[5-(6-Methylbenzothiazol-2-yl)-3-trifluoromethyl-1H-pyrazol-5-yl]benzenesulfonamide] | > 100000 nM | > 172 | 580 nM | 
CS(=O)(=O)c1ccc(-n2nc(C(F)(F)F)cc2-c2nc3cccc(F)c3s2)cc1 [Example 17, 7-fluoro-2-[1-(4-methylsulfonylphenyl)-3-trifluoromethyl-1H-pyrazol-5-yl]benzothiazole] | > 100000 nM | > 625 | 160 nM | 
NS(=O)(=O)c1ccc(-n2nc(C(F)(F)F)cc2-c2nc3cccc(F)c3s2)cc1 [Example 18, 4-[5-(7-Fluorobenzothiazol-2-yl)-3-trifluoromethyl-1H-pyrazol-1-yl]benzenesulfonamide] | > 100000 nM | > 625 | 160 nM | % Inhibition against Reduction of Gain in Body Weight [6]: 75%; Edema Inhibition (%) Left Hind Paw (Non-inflamed Paw) [6]: 116%; Edema Inhibition (%) Right Hind Paw (Inflamed Paw) [6]: 84%; % Inhibition against Change in Relative Weight, Spleen [6]: 48%; % Inhibition against Change in Relative Weight, Thymus [6]: 48%; Inflammation Score Inhibition (%) [6]: 91%
NS(=O)(=O)c1ccc(-n2nc(C(F)F)cc2-c2nc3ccccc3s2)cc1 [Example 21, 4-[5-(Benzothiazol-2-yl)-3-difluoromethyl-1H-pyrazol-1-yl]-benzenesulfonamide] | 22000 nM | 386 | 57 nM | 
CS(=O)(=O)c1ccc(-n2nc(C(F)F)cc2-c2nc3ccc(F)cc3s2)cc1 [Example 22, 6-Fluoro-2-[1-(4-methylsulfonylphenyl)-3-difluoromethyl-1H-pyrazol-5-yl]benzothiazole] | > 100000 nM | > 2000 | 50 nM | 
NS(=O)(=O)c1ccc(-n2nc(C(F)F)cc2-c2nc3ccc(F)cc3s2)cc1 [Example 23, 4-[5-(6-Fluorobenzothiazol-2-yl)-3-difluoromethyl-1H-pyrazol-1-yl]benzenesulfonamide] | > 100000 nM | > 909 | 110 nM | 
NS(=O)(=O)c1ccc(-n2nc(C(F)F)cc2-c2nc3ccc(Cl)cc3s2)cc1 [Example 24, 4-[5-(6-Chlorobenzothiazol-2-yl)-3-difluoromethyl-1H-pyrazol-1-yl]benzenesulfonamide] | 1800 nM | 21 | 86 nM | 
COc1ccc2nc(-c3cc(C(F)F)nn3-c3ccc(S(N)(=O)=O)cc3)sc2c1 [Example 25, 4-[3-Difluoromethyl-5-(6-methoxybenzothiazol-2-yl)-1H-pyrazol-5-yl]benzenesulfonamide] | > 100000 nM | > 250 | 400 nM | 
Cc1ccc2nc(-c3cc(C(F)F)nn3-c3ccc(S(C)(=O)=O)cc3)sc2c1 [Example 26, 6-Methyl-2-[1-(4-methylsulfonylphenyl)-3-difluoromethyl-1H-pyrazol-5-yl]benzothiazole] | > 100000 nM | > 769 | 130 nM | 
Cc1ccc2nc(-c3cc(C(F)F)nn3-c3ccc(S(N)(=O)=O)cc3)sc2c1 [Example 27] | 33000 nM | 623 | 53 nM | 
CS(=O)(=O)c1ccc(-n2nc(C(F)F)cc2-c2nc3cccc(F)c3s2)cc1 [Example 28, 7-Fluoro-2-[1-(4-methylsulfonylphenyl)-3-difluoromethyl-1H-pyrazol-5-yl]benzothiazole] | > 100000 nM | > 1190 | 84 nM | 
NS(=O)(=O)c1ccc(-n2nc(C(F)F)cc2-c2nc3cccc(F)c3s2)cc1 [Example 29, 4-[5-(7-Fluorobenzothiazol-2-yl)-3-difluoromethyl-1H-pyrazol-1-yl]benzenesulfonamide] | > 100000 nM | > 8333 | 12 nM | % Inhibition against Reduction of Gain in Body Weight [6]: 73%; Edema Inhibition (%) Left Hind Paw (Non-inflamed Paw) [6]: 124%; Edema Inhibition (%) Right Hind Paw (Inflamed Paw) [6]: 82%; % Inhibition against Change in Relative Weight, Spleen [6]: 25%; % Inhibition against Change in Relative Weight, Thymus [6]: 80%; Inflammation Score Inhibition (%) [6]: 86%
Cc1cccc2nc(-c3cc(C(F)F)nn3-c3ccc(S(N)(=O)=O)cc3)sc12 [Example 31, 4-[3-Difluoromethyl-5-(7-methylbenzothiazol-2-yl)-1H-pyrazol-1-yl]benzenesulfonamide] | > 100000 nM | > 417 | 240 nM | 
Cc1ccc2nc(-c3cc(C(F)(F)C(F)(F)F)nn3-c3ccc(S(C)(=O)=O)cc3)sc2c1 [Example 32, 6-Methyl-2-[1-(4-methylsulfonylphenyl)-3-pentafluoroethyl-1H-pyrazol-5-yl]benzothiazole] | > 100000 nM | > 270 | 370 nM | 
Cc1ccc2nc(-c3cc(C(F)(F)C(F)(F)F)nn3-c3ccc(S(N)(=O)=O)cc3)sc2c1 [Example 33, 4-[5-(6-Methylbenzothiazol-2-yl)-3-pentafluoroethyl-1H-pyrazol-5-yl]benzenesulfonamide] | > 100000 nM | > 769 | 130 nM | 
NS(=O)(=O)c1ccc(-n2nc(C(F)F)cc2-c2nc3c(F)cccc3s2)cc1 [Example 41] | > 100000 nM | > 417 | 240 nM | 
